# Assays:
# rLHR [1] = target: T1, rLHR (Rattus norvegicus, UniProt P16235); assay: Cellulase activity assay of supernatants of CK04 cells transfected with pCK71; type: cell-based; parameters: Full-length cDNAs encoding the LHRs of rat (r) and bovine (b) origin; expressed in transfected cells; host or cells: CK04: HEK293T stably cotransfected with pLEN-rLHR and pZeoSV2(+), clone 6; conditions: CK04 + pCK71, supernatants 48 h post-induction
# Protocol: Cellulase activity assay performed from cell culture supernatants 48 h post-induction.
# A novel bLH-responsive microcapsule degradation system was established by placing an engineered secreted version of the lytic enzyme endo-1.4-beta-glucanase gene (cellulase) under control of PCRE. […] The protein had the estimated size of 57 kDa. Additionally, the functionality of the pCK71-encoded cellulase was evaluated by performing a cellulase activity assay (FIG. 12).
# Cellulase was quantified using EnzCheck® fluorescent substrate (Molecular Probes, Eugene, Oreg., USA) according to the manufacturer's protocol: 20 μl of cell culture supernatant was centrifuged at 16,000×g for one minute to remove cell debris and 15 μl of appropriate dilutions in PBS (Invitrogen, cat. no. 21600-069) were transferred to a 384-well plate containing 15 μl sodium acetate buffer (200 mM sodium acetate, pH 5.5) per well supplemented with 3 μl substrate solution. Plates were incubated at 37° C. for 30 minutes and fluorescence intensity was measured subsequently at 340 nm (excitation wavelength) and 450 nm (emission wavelength) in a Genios Pro multiwell plate reader (Tecan A G, Maennedorf, Switzerland). Absolute cellulase levels were determined by comparing the fluorescence intensities to readings of standardized solutions containing known concentrations of Aspergillus niger cellulase (Sigma, cat. no. 22178). […]
# rLHR [2] = target: T1, rLHR; assay: Reporter gene expression (SEAP, eYFP) of CS/pDADMAC-encapsulated CK04 cells; type: cell-based; parameters: Full-length cDNAs encoding the LHRs of rat (r) and bovine (b) origin; expressed in transfected cells; host or cells: CK04: HEK293T stably cotransfected with pLEN-rLHR and pZeoSV2(+), clone 6
# Source text: The SEAP production increased over time in the presence but not the absence of bLH.
# To determine whether bLH can penetrate microcapsules and activate the gene expression of encapsulated cells, CK04 cells were transiently transfected with a vector encoding PCRE controlled eYFP expression (pCK91, PCRE-eYFP-pA). After transfection the cells were encapsulated in CS/pDADMAC-microcapsules and cultured in the absence or presence of bLH. […] In contrast in the absence of bLH the cells remained non-fluorescent. […] It was also investigated if the activation of encapsulated cells is bLH dose- and time-dependent. Therefore, CK04 cells transiently transfected for PCRE dependent SEAP expression (pCK62, PCRE-SEAP-PA) were encapsulated, the capsules cultured in the absence or presence of 100 ng/ml or 500 ng/ml bLH and the SEAP expression measured in 12 hours intervals (FIG. 11). […] 60 hours post-induction a 2.3±0.2 fold higher SEAP expression for LH-surge doses of bLH compared to 100 ng/ml hormone was measured. […]
# The intracellular cAMP production of cells was quantified using the cAMP Fluorescence Polarization (FP) Biotrak Immunoassay System (GE Healthcare Bio-Sciences GmbH, Otelfingen, Switzerland, Cat No. RPN3595) according to the manufacturer's protocol. The expression of firefly luciferase was determined with the Tropix Luciferase Assay Kit (Applied Biosystems, Bedford, USA, Cat No. BC100L). […]
# T1 sequence (P16235 27-700): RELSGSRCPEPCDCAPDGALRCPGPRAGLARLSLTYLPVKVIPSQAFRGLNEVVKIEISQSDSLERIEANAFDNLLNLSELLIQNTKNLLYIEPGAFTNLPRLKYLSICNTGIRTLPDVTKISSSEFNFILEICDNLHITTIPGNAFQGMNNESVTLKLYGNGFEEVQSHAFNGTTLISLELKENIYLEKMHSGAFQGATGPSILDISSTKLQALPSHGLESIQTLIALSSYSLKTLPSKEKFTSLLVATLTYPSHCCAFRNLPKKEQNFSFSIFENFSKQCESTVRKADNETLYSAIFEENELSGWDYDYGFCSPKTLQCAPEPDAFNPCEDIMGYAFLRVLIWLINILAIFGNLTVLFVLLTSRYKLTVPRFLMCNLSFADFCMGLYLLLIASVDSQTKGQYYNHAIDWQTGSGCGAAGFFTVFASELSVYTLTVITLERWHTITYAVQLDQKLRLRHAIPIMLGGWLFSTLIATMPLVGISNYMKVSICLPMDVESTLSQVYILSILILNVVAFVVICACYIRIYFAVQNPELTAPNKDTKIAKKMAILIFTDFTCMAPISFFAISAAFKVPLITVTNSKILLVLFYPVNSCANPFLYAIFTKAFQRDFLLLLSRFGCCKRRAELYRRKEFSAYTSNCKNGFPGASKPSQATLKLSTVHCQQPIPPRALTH
substance,measurement,setting,value
bovine luteinizing hormone [bLH],bLH-dependent increase in cellulase activity,rLHR [1],8.4±0.2 fold
same,SEAP expression for LH-surge doses of bLH compared to 100 ng/ml,"rLHR [2]; encapsulated CK04, pCK62, 60 hours post-induction, 500 ng/ml vs 100 ng/ml",2.3±0.2 fold
same,eYFP expression of encapsulated cells,"rLHR [2]; encapsulated CK04, pCK91, bLH present",strongly induced
